The test system of one data set is Candida albicans. Put plainly: inhibitory effect, antifungal test disk (Test Example 2). Format: cell-based. The following applies: 8 mm disk, 0.005 g active ingredient.
For data set [1], the system named is Trichophyton mentagrophytes. The description is as above. The following applies: 8 mm disk, 0.005 g active ingredient. Format: cell-based.
From the text: (§1) Each test fungal liquid was mixed with a Sabouraud's agar medium containing 0.1% of Tween 80 to form a multilayered fungal agar film, which was then solidified.
The test system of another data set is Aspergillus fumigatus. Described as above. Format: cell-based. The following applies: 8 mm disk, 0.005 g active ingredient.
In the next data set the test system is Cryptococcus neoformans. Described as above. Format: cell-based. The following applies: 8 mm disk, 0.005 g active ingredient.
The nature of data set [2]: solubility in phosphate buffer solution.
Data set [3] in a line: acute toxicity, LD50 oral. The following applies: mouse, in vivo, comparison with NT-72 orally in mice, source not stated.
Data set [4] concerns medical fungi (Aspergillus, Candida, Trichophyton). Kind of data set: growth inhibition of fungi (general statements). Format: cell-based. Here is the method:
Each of the components is separated and tested with respect to the activity of growth inhibition of Aspergillus fumigatus, Candida albicans and Trichophyton mentagrophytes, respectively, according to the disk method.
Using 0.01 ml. of the resulting solution, the growth inhibitory effect of each powder against fungi was tested according to the disk method.

Counter-ions that a name gives are not always drawn.

What is called LD50 is the dose at which mortality reaches 50%. A higher LD50 goes with a less toxic substance.

From the text for Aspergillus fumigatus: as §1
From the text for Candida albicans: as §1
From the text for Cryptococcus neoformans: as §1

Regarding `C[C@@H]1[C@H](O)[C@@H](C)/C=C/C=C/C=C/C=C/C=C/C=C/C=C/[C@H](O[C@@H]2O[C@H](C)[C@@H](O)[C@H](N)[C@@H]2O)C[C@@H]2O[C@](O)(C[C@@H](O)C[C@@H](O)[C@H](O)CC[C@@H](O)C[C@@H](O)CC(=O)O[C@H]1C)C[C@H](O)[C@H]2C(=O)O` [Amphotericin B], the inhibitory circle diameter was determined as 11 mm in the data set on Candida albicans and 8.5 mm in data set [1]. For the same compound, the “inhibitory circle diameter (Trace)” value in the data set on Candida albicans came out at 14 mm.
For `Clc1ccccc1C(c1ccccc1)(c1ccccc1)n1ccnc1` [Byb 5097], the values for the inhibitory circle diameter (in the data set with Aspergillus fumigatus; in the data set with Candida albicans; in data set [1]) were 12.5 mm, 17 mm and 24 mm, respectively. Further, the “inhibitory circle diameter (Trace)” value is 18 mm in the data set on Aspergillus fumigatus (trace), 22 mm in the data set on Candida albicans and 18 mm in the data set with Cryptococcus neoformans (trace). Besides, the “solubility in the phosphate buffer solution” value in data set [2] is “not sufficiently soluble”.
As for `C[C@@H]1[C@H](O)[C@@H](C)/C=C/C=C/CC/C=C/C=C/C=C/C=C/C(O[C@H]2O[C@H](C)[C@@H](O)[C@H](N)[C@@H]2O)CC2O[C@](O)(CC(O)C(O)CCC(O)CC(O)CC(O)CC(=O)O[C@H]1C)CC(O)C2C(=O)O` (some centres unmarked) [Nystatin], the inhibitory circle diameter came to 12 mm in the data set with Aspergillus fumigatus, 21 mm in the data set with Candida albicans, 12.5 mm in data set [1] and 11 mm in the data set with Cryptococcus neoformans. The “solubility in the phosphate buffer solution” value in data set [2] is “not sufficiently soluble”.
For `COc1ccc2cc3[n+](cc2c1OC)CCc1cc2c(cc1-3)OCO2` [berberine hydrochloride], the LD50 in data set [3] was 60 to 70 mg/kg. Further, in data set [4], the “activity of butanol extract after sodium borohydride reduction” value is listed as “does not show the activity”.
